Patent US20240217983A1, “GPR119 AGONISTS” (Kallyope, Inc., priority 2021, published 2024)

Target: T1, human GPR119 (hGPR119) (Homo sapiens, UniProt Q8TDV5)
T1 construct: expressed in transfected cells
T1 sequence (Q8TDV5 1-335): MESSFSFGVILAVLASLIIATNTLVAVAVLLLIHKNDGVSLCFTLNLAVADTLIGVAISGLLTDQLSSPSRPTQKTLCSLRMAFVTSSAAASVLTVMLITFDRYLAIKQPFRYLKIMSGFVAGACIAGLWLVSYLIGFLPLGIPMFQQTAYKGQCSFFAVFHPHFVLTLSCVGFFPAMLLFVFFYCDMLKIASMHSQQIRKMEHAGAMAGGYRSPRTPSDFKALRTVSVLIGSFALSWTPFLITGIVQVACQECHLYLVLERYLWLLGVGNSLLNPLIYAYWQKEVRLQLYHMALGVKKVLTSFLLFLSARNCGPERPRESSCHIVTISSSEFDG
Assay: cAMP accumulation assay (Cisbio cAMP Gs dynamic HTRF kit) in CHO-K1 cells stably expressing human GPR119
Type: cell-based
Settings: 4-parameter fit; for Emax: 1 h, % activity normalized to Max and Min controls; for EC50: 60 minutes at 37° C.
Summary of the method: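 CHO-K1 cells stably expressing hGPR119, used as assay-ready frozen stocks at ~10,000 cells/well, exposed to compound dose-response in stimulation buffer with Tween 80 for 60 min at 37° C. cAMP read by HTRF (665/620 nm ratio), normalised to Max/Min controls; EC50 and Max activity from 4-parameter fit.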

Row | Emax [%] | EC50 [nM] | Structure (SMILES)
1 | 100 to 130 | ≤ 100 | O=C(Cc1ccc(OCCCC2CCN(c3ncc(Cl)cn3)CC2)cc1F)N1C[C@@H]2C[C@H]1CN2C[C@H](O)[C@H](O)[C@H](O)CO [Example 54, 2-(4-(3-(1-(5-chloropyrimidin-2-yl)piperidin-4-yl)propoxy)-2-fluorophenyl)-1-((1S,4S)-5-((2S,3S,4R)-2,3,4,5-tetrahydroxypentyl)-2,5-diazabicyclo[2.2.1]heptan-2-yl)ethan-1-one]
2 | 100 to 130 | ≤ 100 | O=C(Cc1ccc(OCCCC2CCN(c3ncc(Cl)cn3)CC2)cc1F)N1C[C@@H]2C[C@H]1CN2C[C@H](O)[C@@H](O)[C@H](O)[C@H](O)CO [Example 55, 2-(4-(3-(1-(5-chloropyrimidin-2-yl)piperidin-4-yl)propoxy)-2-fluorophenyl)-1-((1S,4S)-5-((2S,3R,4R,5R)-2,3,4,5,6-pentahydroxyhexyl)-2,5-diazabicyclo[2.2.1]heptan-2-yl)ethan-1-one]
3 | 100 to 130 | ≤ 100 | O=C(Cc1ccc(OCCCC2CCN(c3ncc(Cl)cn3)CC2)cc1F)N1C2CC1CN(C[C@H](O)[C@H](O)[C@H](O)CO)C2 [Example 56, 2-(4-(3-(1-(5-chloropyrimidin-2-yl)piperidin-4-yl)propoxy)-2-fluorophenyl)-1-(3-((2S,3S,4R)-2,3,4,5-tetrahydroxypentyl)-3,6-diazabicyclo[3.1.1]heptan-6-yl)ethan-1-one]
4 | 100 to 130 | ≤ 100 | O=C(Cc1ccc(OCCCC2CCN(c3ncc(Cl)cn3)CC2)cc1F)N1C2CC1CN(C[C@H](O)[C@@H](O)[C@H](O)[C@H](O)CO)C2 [Example 57, 2-(4-(3-(1-(5-chloropyrimidin-2-yl)piperidin-4-yl)propoxy)-2-fluorophenyl)-1-(3-((2S,3R,4R,5R)-2,3,4,5,6-pentahydroxyhexyl)-3,6-diazabicyclo[3.1.1]heptan-6-yl)ethan-1-one]
5 | 100 to 130 | ≤ 100 | O=C(Cc1ccc(OCCCC2CCN(c3ncc(Cl)cn3)CC2)cc1F)N1CCN(C[C@H](O)[C@H](O)[C@H](O)CO)C2CC21 (stereo partly drawn) [Example 58, 2-(4-(3-(1-(5-chloropyrimidin-2-yl)piperidin-4-yl)propoxy)-2-fluorophenyl)-1-(5-((2S,3S,4R)-2,3,4,5-tetrahydroxypentyl)-2,5-diazabicyclo[4.1.0]heptan-2-yl)ethan-1-one]
6 | 100 to 130 | ≤ 100 | O=C(Cc1ccc(OCCCC2CCN(c3ncc(Cl)cn3)CC2)cc1F)N1CCN(C[C@H](O)[C@@H](O)[C@H](O)[C@H](O)CO)C2CC21 (stereo partly drawn) [Example 59, 2-(4-(3-(1-(5-chloropyrimidin-2-yl)piperidin-4-yl)propoxy)-2-fluorophenyl)-1-(5-((2S,3R,4R,5R)-2,3,4,5,6-pentahydroxyhexyl)-2,5-diazabicyclo[4.1.0]heptan-2-yl)ethan-1-one]
7 | ≥ 130 | ≤ 100 | O=C(Cc1ccc(OCCCC2CCN(c3ncc(Cl)cn3)CC2)cc1F)N1CC2(CCCN2C[C@H](O)[C@H](O)[C@H](O)CO)C1 [Example 60, 2-(4-(3-(1-(5-chloropyrimidin-2-yl)piperidin-4-yl)propoxy)-2-fluorophenyl)-1-(5-((2S,3S,4R)-2,3,4,5-tetrahydroxypentyl)-2,5-diazaspiro[3.4]octan-2-yl)ethan-1-one]
8 | ≥ 130 | ≤ 100 | O=C(Cc1ccc(OCCCC2CCN(c3ncc(Cl)cn3)CC2)cc1F)N1CC2(CCCN2C[C@H](O)[C@@H](O)[C@H](O)[C@H](O)CO)C1 [Example 61, 2-(4-(3-(1-(5-chloropyrimidin-2-yl)piperidin-4-yl)propoxy)-2-fluorophenyl)-1-(5-((2S,3R,4R,5R)-2,3,4,5,6-pentahydroxyhexyl)-2,5-diazaspiro[3.4]octan-2-yl)ethan-1-one]
9 | 100 to 130 | ≤ 100 | O=C(Cc1ccc(OCCCC2CCN(c3ncc(Cl)cn3)CC2)cc1F)N1CC2(C1)N(C[C@H](O)[C@H](O)[C@H](O)CO)CC2(F)F [Example 62, 2-(4-(3-(1-(5-chloropyrimidin-2-yl)piperidin-4-yl)propoxy)-2-fluorophenyl)-1-(3,3-difluoro-1-((2S,3S,4R)-2,3,4,5-tetrahydroxypentyl)-1,6-diazaspiro[3.3]heptan-6-yl)ethan-1-one]
10 | ≥ 130 | ≤ 100 | O=C(Cc1ccc(OCCCC2CCN(c3ncc(Cl)cn3)CC2)cc1F)N1CC2(C1)N(C[C@H](O)[C@@H](O)[C@H](O)[C@H](O)CO)CC2(F)F [Example 63, 2-(4-(3-(1-(5-chloropyrimidin-2-yl)piperidin-4-yl)propoxy)-2-fluorophenyl)-1-(3,3-difluoro-1-((2S,3R,4R,5R)-2,3,4,5,6-pentahydroxyhexyl)-1,6-diazaspiro[3.3]heptan-6-yl)ethan-1-one]
11 | 100 to 130 | ≤ 100 | O=C(Cc1ccc(OCCCC2CCN(c3ncc(Cl)cn3)CC2)cc1F)N1C[C@H]2CCN(C[C@H](O)[C@H](O)[C@H](O)CO)[C@H]2C1 [Example 64, 2-(4-(3-(1-(5-chloropyrimidin-2-yl)piperidin-4-yl)propoxy)-2-fluorophenyl)-1-((3aR,6aR)-1-((2S,3S,4R)-2,3,4,5-tetrahydroxypentyl)hexahydropyrrolo[3,4-b]pyrrol-5(1H)-yl)ethan-1-one]
12 | 100 to 130 | ≤ 100 | O=C(Cc1ccc(OCCCC2CCN(c3ncc(Cl)cn3)CC2)cc1F)N1C[C@H]2CCN(C[C@H](O)[C@@H](O)[C@H](O)[C@H](O)CO)[C@H]2C1 [Example 65, 2-(4-(3-(1-(5-chloropyrimidin-2-yl)piperidin-4-yl)propoxy)-2-fluorophenyl)-1-((3aR,6aR)-1-((2S,3R,4R,5R)-2,3,4,5,6-pentahydroxyhexyl)hexahydropyrrolo[3,4-b]pyrrol-5(1H)-yl)ethan-1-one]
13 | 100 to 130 | ≤ 100 | O=C(Cc1ccc(OCCCC2CCN(c3ncc(Cl)cn3)CC2)cc1F)N1CC2(CCN(C[C@H](O)[C@H](O)[C@H](O)CO)C2)C1 [Example 66, 2-(4-(3-(1-(5-chloropyrimidin-2-yl)piperidin-4-yl)propoxy)-2-fluorophenyl)-1-(6-((2S,3S,4R)-2,3,4,5-tetrahydroxypentyl)-2,6-diazaspiro[3.4]octan-2-yl)ethan-1-one]
14 | 100 to 130 | ≤ 100 | O=C(Cc1ccc(OCCCC2CCN(c3ncc(Cl)cn3)CC2)cc1F)N1CCC2(CC1)CCN2C[C@H](O)[C@H](O)[C@H](O)CO [Example 67, 2-(4-(3-(1-(5-chloropyrimidin-2-yl)piperidin-4-yl)propoxy)-2-fluorophenyl)-1-(1-((2S,3S,4R)-2,3,4,5-tetrahydroxypentyl)-1,7-diazaspiro[3.5]nonan-7-yl)ethan-1-one]
15 | 100 to 130 | ≤ 100 | O=C(Cc1ccc(OCCCC2CCN(c3ncc(Cl)cn3)CC2)cc1F)N1CCC2(CC1)CCN2C[C@H](O)[C@@H](O)[C@H](O)[C@H](O)CO [Example 68, 2-(4-(3-(1-(5-chloropyrimidin-2-yl)piperidin-4-yl)propoxy)-2-fluorophenyl)-1-(1-((2S,3R,4R,5R)-2,3,4,5,6-pentahydroxyhexyl)-1,7-diazaspiro[3.5]nonan-7-yl)ethan-1-one]
16 | 100 to 130 | 100 to 1000 | O=C(Cc1ccc(OCCCC2CCN(c3ncc(Cl)cn3)CC2)cc1F)N1CCC2(CC1)CN(C[C@H](O)[C@H](O)[C@H](O)CO)C2 [Example 69, 2-(4-(3-(1-(5-chloropyrimidin-2-yl)piperidin-4-yl)propoxy)-2-fluorophenyl)-1-(2-((2S,3S,4R)-2,3,4,5-tetrahydroxypentyl)-2,7-diazaspiro[3.5]nonan-7-yl)ethan-1-one]
17 | 100 to 130 | 100 to 1000 | O=C(Cc1ccc(OCCCC2CCN(c3ncc(Cl)cn3)CC2)cc1F)N1CCC2(CC1)CN(C[C@H](O)[C@@H](O)[C@H](O)[C@H](O)CO)C2 [Example 70, 2-(4-(3-(1-(5-chloropyrimidin-2-yl)piperidin-4-yl)propoxy)-2-fluorophenyl)-1-(2-((2S,3R,4R,5R)-2,3,4,5,6-pentahydroxyhexyl)-2,7-diazaspiro[3.5]nonan-7-yl)ethan-1-one]
18 | 100 to 130 | ≤ 100 | O=C(Cc1ccc(OCCCC2CCN(c3ncc(Cl)cn3)CC2)cc1F)N1CCC2(CN(C[C@H](O)[C@H](O)[C@H](O)CO)CCO2)C1 (stereo partly drawn) [Example 72, 2-(4-(3-(1-(5-chloropyrimidin-2-yl)piperidin-4-yl)propoxy)-2-fluorophenyl)-1-(9-((2S,3S,4R)-2,3,4,5-tetrahydroxypentyl)-6-oxa-2,9-diazaspiro[4.5]decan-2-yl)ethan-1-one]
19 | 100 to 130 | ≤ 100 | O=C(Cc1ccc(OCCCC2CCN(c3ncc(Cl)cn3)CC2)cc1F)N1CCC2(CN(C[C@H](O)[C@@H](O)[C@H](O)[C@H](O)CO)CCO2)C1 (stereo partly drawn) [Example 73, 2-(4-(3-(1-(5-chloropyrimidin-2-yl)piperidin-4-yl)propoxy)-2-fluorophenyl)-1-(9-((2S,3R,4R,5R)-2,3,4,5,6-pentahydroxyhexyl)-6-oxa-2,9-diazaspiro[4.5]decan-2-yl)ethan-1-one]

Row | Structure (SMILES) | Emax [%] | EC50 [nM]
20 | O=C(Cc1ccc(OCCCC2CCN(c3ncc(Cl)cn3)CC2)cc1F)N1CCN(C[C@H](O)[C@H](O)[C@H](O)CO)CC1 [Example 71, 2-(4-(3-(1-(5-chloropyrimidin-2-yl)piperidin-4-yl)propoxy)-2-fluorophenyl)-1-(4-((2S,3S,4R)-2,3,4,5-tetrahydroxypentyl)piperazin-1-yl)ethan-1-one] | 100 to 130 | ≤ 100
